From ChEMBL document CHEMBL4043103, “Design, synthesis, and biological evaluation of some novel indolizine derivatives as dual cyclooxygenase and lipoxygenase inhibitor for anti-inflammatory activity” (Bioorg Med Chem, 2017) come the findings set out here.

By logP is commonly meant a log measure of how a compound divides between an organic and an aqueous phase. For orientation: IC50 means the concentration that gives 50% inhibition. One may read the Ki as a measure of affinity in units of concentration, obtained from inhibition or displacement. Low readings indicate tighter binding, high ones weaker binding.

Series [1] is filed under the species Rattus norvegicus. In words: animal or person. To be noted: Wistar, po, read-out: INH.
The species named for series [2] is Rattus norvegicus. The series is described as follows: animal or person. To be noted: Wistar, po, read-out: INH. The source holds these as a separate data set.
A short description of series [3]: Solubility of the compound in acetone by shake-flask method. It is filed as physicochemical.
Series [4] is described as follows: Solubility of the compound in ethanol by shake-flask method. In kind it is physicochemical.
Series [5] can be described thus: Solubility of the compound in DMSO by shake-flask method. In kind it is physicochemical.
A short description of series [6]: Solubility of the compound in methanol by shake-flask method. It is filed as physicochemical.
The species entered for series [7] is Rattus norvegicus. In words: animal or person. As to conditions: Wistar, po, read-out: INH. This is another data set of the same source.
Series [8] in a line: Solubility of the compound in chloroform by shake-flask method. It is filed as physicochemical.
Series [9] in a line: Solubility of the compound in water by shake-flask method. In kind it is physicochemical. As to conditions: buffer.
Series [10] in a line: n-Octanol-water partition coefficient, log P of the compound by shake-flask method. It is filed as physicochemical.
The species entered for series [11] is Rattus norvegicus. The series is described as follows: animal or person. To be noted: Wistar, po, read-out: INH. The source holds these as a separate data set.
Series [12] can be described thus: Inhibition of soybean lipoxygenase preincubated for 5 mins followed by linoleic acid substrate addition measured after 20 mins by spectrophotometric method. Details: species or system Glycine max.
Series [13] has as its target T1, Prostaglandin G/H synthase 1 (Ovis aries, UniProt P05979).
T1 sequence (P05979 whole entry): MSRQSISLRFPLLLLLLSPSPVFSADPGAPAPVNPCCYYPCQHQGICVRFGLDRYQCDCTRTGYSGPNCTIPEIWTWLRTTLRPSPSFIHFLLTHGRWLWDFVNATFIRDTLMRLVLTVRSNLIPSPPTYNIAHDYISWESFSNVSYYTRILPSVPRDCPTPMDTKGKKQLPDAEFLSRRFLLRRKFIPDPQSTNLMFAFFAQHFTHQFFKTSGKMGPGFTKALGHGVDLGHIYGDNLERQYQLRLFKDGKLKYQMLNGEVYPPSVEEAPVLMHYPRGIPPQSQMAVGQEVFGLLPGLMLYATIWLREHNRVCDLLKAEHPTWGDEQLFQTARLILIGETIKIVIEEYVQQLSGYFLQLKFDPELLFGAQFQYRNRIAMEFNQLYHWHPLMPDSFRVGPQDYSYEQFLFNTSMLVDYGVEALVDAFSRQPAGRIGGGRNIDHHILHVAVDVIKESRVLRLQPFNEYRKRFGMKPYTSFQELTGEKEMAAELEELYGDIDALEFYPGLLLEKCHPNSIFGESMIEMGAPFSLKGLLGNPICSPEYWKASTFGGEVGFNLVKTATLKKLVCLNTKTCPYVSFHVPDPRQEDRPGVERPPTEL
Description: Inhibition of ovine COX-1 preincubated for 5 mins followed by arachidonic acid substrate addition by colorimetric enzyme immunoassay

The test system of series [14] is Rattus norvegicus. The series is described as follows: Anti inflammatory activity in arachidonic acid-induced Wistar rat paw edema model assessed as inhibition of right hind paw edema thickness at 10 mg/kg, po pretreated for 30 mins followed by arachidonic acid challenge measured after 1 hr (reference value: 0%). In kind it is functional.
The species named for series [15] is Rattus norvegicus. The series is described as follows: Gastrointestinal toxicity in adjuvant-induced Wistar rat arthritis model assessed as ulcer index treated for 7 days measured on day 21 post arthritis induction. To be noted: in vivo, 168 h.
For series [16], the system named is Rattus norvegicus. In words: Anti inflammatory activity in carrageenan-induced Wistar rat paw edema model assessed as inhibition of left hind paw edema size at 10 mg/kg, po pretreated for 1 hr followed by carrageenan challenge measured after 2 hrs by plethysmometry method (reference value: 0%). In kind it is functional. (In general: Carrageenan injected into the paw causes an acute inflammation.)

Series [17] relates to Rattus norvegicus. In words: Anti inflammatory activity in carrageenan-induced Wistar rat paw edema model assessed as inhibition of left hind paw edema size at 10 mg/kg, po pretreated for 1 hr followed by carrageenan challenge measured after 6 hrs by plethysmometry method (reference value: 0%). In kind it is functional.
Series [18] deals with Rattus norvegicus. In words: Anti inflammatory activity in carrageenan-induced Wistar rat paw edema model assessed as inhibition of left hind paw edema size at 10 mg/kg, po pretreated for 1 hr followed by carrageenan challenge measured after 4 hrs by plethysmometry method (reference value: 0%). It is filed as functional.
Series [19] has as its target T2, Prostaglandin G/H synthase 2 (Homo sapiens, UniProt P35354).
T2 sequence (P35354 whole entry): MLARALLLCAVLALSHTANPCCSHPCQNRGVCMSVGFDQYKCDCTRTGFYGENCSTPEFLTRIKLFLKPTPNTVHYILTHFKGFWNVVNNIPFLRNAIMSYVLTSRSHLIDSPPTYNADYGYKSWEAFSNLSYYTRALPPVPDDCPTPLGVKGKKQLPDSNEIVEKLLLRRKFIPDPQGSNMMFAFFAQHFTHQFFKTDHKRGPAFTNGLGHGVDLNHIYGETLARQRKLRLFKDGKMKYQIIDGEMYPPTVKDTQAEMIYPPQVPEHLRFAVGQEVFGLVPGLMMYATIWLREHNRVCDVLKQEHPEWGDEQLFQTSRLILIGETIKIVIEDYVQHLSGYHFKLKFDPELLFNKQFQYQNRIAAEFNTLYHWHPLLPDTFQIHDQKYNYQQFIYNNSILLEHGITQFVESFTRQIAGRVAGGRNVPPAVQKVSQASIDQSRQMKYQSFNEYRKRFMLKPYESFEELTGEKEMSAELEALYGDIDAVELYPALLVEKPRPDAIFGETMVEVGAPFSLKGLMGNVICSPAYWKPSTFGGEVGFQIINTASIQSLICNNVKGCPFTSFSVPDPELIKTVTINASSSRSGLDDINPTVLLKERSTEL
The series is described as follows: Non noncompetitive inhibition of human COX-2 preincubated for 5 mins followed by arachidonic acid substrate addition by Lineweaver-Burk plot analysis.

The target of series [20] is T2, Prostaglandin G/H synthase 2.
Description: Inhibition of human COX-2 preincubated for 5 mins followed by arachidonic acid substrate addition by colorimetric enzyme immunoassay
Series [21] can be described thus: Non noncompetitive inhibition of soybean lipoxygenase preincubated for 5 mins followed by substrate addition measured after 20 mins by Lineweaver-Burk plot analysis. Details: species or system Glycine max.
For a further series, the system named is RAW264.7. In words: Anti-inflammatory activity in mouse RAW264.7 cells assessed as reduction in LPS-induced NO production by Griess assay. In kind it is functional, cell-based.

The structures appear in SMILES notation.

On to `NCc1c(-c2ccc(C(F)(F)F)cc2)c(C(=O)O)c2ccccn12`, for which the inhibition in vivo at 10 mg/kg in the series filed under Rattus norvegicus [1] turned out to be 40%; in the series listed under Rattus norvegicus [2], 42.8%; in the series listed under Rattus norvegicus [7], 62.8%; in the series listed under Rattus norvegicus [11], 67.7%. Besides, the solubility result is listed as “Soluble” in series [3]; “Soluble” in [4]; “Soluble” in series [5]; “Soluble” in series [6]; “Insoluble” in series [8]; “Soluble” in [9]. Besides, the logP in series [10] came to 2.06.
With `CC1(C)Cc2c(-c3ccccc3)c(-c3ccc(Cl)cc3)c(CC(=O)O)n2C1` [LICOFELONE], the IC50 in series [12] stood at 0.21 µM; in [13] it was 0.16 µM.
As to `Cc1c(C(=O)O)c2ccccn2c1CN`, the inhibition in vivo at 10 mg/kg in the series listed under Rattus norvegicus [1] worked out at 23.1%; in the series listed under Rattus norvegicus [2] it was 41.3%; in the series listed under Rattus norvegicus [7] it was 44.2%; in the series filed under Rattus norvegicus [11], 38.5%. Moreover, the solubility entry was “Soluble” in series [3]; “Soluble” in [4]; “Soluble” in series [5]; “Soluble” in [6]; “Insoluble” in series [8]; “Soluble” in series [9]. Besides, the logP in series [10] came to 0.72.
In series [12], `CC(c1cc2ccccc2s1)N(O)C(N)=O` (stereo not given) [ZILEUTON] gave an IC50 of 3.43 µM. The inhibition in vivo at 10 mg/kg in the series with Rattus norvegicus [14] amounted to 72.3%. The UI in the series filed under Rattus norvegicus [15] is recorded as 52.
Turning to `NCc1c(-c2ccc3c(c2)OCO3)c(C(=O)O)c2ccccn12`, the inhibition in vivo at 10 mg/kg in the series listed under Rattus norvegicus [1] was found to be 23.1%; in the series listed under Rattus norvegicus [2] it was 61.9%; in the series listed under Rattus norvegicus [7] it was 74.4%; in the series filed under Rattus norvegicus [11], 78.1%. Besides, the solubility entry was “Soluble” in series [3]; “Soluble” in series [4]; “Soluble” in series [5]; “Soluble” in series [6]; “Insoluble” in [8]; “Soluble” in [9]. Besides, the logP in [10] worked out at 2.07.
As for `CCCCc1c(C(=O)O)c2ccccn2c1CN`, the inhibition in vivo at 10 mg/kg in the series filed under Rattus norvegicus [1] was found to be 15.4%; in the series filed under Rattus norvegicus [2], 23.8%; in the series filed under Rattus norvegicus [7], 24.4%; in the series filed under Rattus norvegicus [11], 23.9%. Also, the solubility result is “Soluble” in [3]; “Soluble” in series [4]; “Soluble” in series [5]; “Soluble” in series [6]; “Insoluble” in [8]; “Soluble” in series [9]. The molecule further displayed a logP in [10] of 2.07.
As for `O=C(O)Cc1ccccc1Nc1c(Cl)cccc1Cl` [DICLOFENAC], the inhibition in vivo at 10 mg/kg in the series on Rattus norvegicus [16] was 74.6%; with Rattus norvegicus [17], 90.9%; in the series on Rattus norvegicus [18], 91.6%. For the same molecule, in the series filed under Rattus norvegicus [15], the UI came to 46.
Regarding `CCc1c(C(=O)O)c2ccccn2c1CN`, the inhibition in vivo at 10 mg/kg is 20.2% in the series filed under Rattus norvegicus [1], 30.2% in the series listed under Rattus norvegicus [2], 32.5% in the series filed under Rattus norvegicus [7] and 34.3% in the series listed under Rattus norvegicus [11]. In addition, the solubility entry in series [3] is “Soluble”; in series [4], “Soluble”; in series [5], “Soluble”; in [6], “Soluble”; in series [8], “Insoluble”; in series [9] it was “Soluble”. For the same molecule, the logP in [10] turned out to be 1.45.
Turning to `NCc1c(-c2ccc(F)cc2)c(C(=O)O)c2ccccn12`, the inhibition in vivo at 10 mg/kg in the series listed under Rattus norvegicus [1] is 61.5%; in the series listed under Rattus norvegicus [2], 69.8%; in the series listed under Rattus norvegicus [7], 89.5%; in the series listed under Rattus norvegicus [11] it was 86.4%. The solubility entry in series [3] is listed as “Soluble”; in series [4], “Soluble”; in series [5], “Soluble”; in series [6], “Soluble”; in [8] it was “Insoluble”; in series [9] it was “Soluble”. Further, the logP in series [10] came to 2.12.
For the molecule `NCc1c(-c2ccccc2)c(C(=O)O)c2ccccn12`, the inhibition in vivo at 10 mg/kg was found to be 66.2% in the series listed under Rattus norvegicus [1], 68.2% in the series listed under Rattus norvegicus [2], 90.5% in the series filed under Rattus norvegicus [7] and 88.6% in the series listed under Rattus norvegicus [11]. Also, the solubility entry in series [3] is given as “Soluble”; in series [4], “Soluble”; in series [5], “Soluble”; in [6] it was “Soluble”; in series [8], “Insoluble”; in series [9], “Soluble”. Further, the Ki is 0.92 µM in series [19] and 0.72 µM in [21]. Besides, the IC50 is 13.1 µM in series [12], 14.9 µM in series [20] and greater than 50 µM in series [13]. In addition, in [10], the logP turned out to be 1.85. Also, the UI in the series listed under Rattus norvegicus [15] is given as 10.
Take `Cc1ccc(-c2cc(C(F)(F)F)nn2-c2ccc(S(N)(=O)=O)cc2)cc1` [CELECOXIB]: in the series listed under Rattus norvegicus [15], the UI worked out at 53.
For the molecule `Cc1ccc2n1[C@@H]1[C@H]3O[C@]([C@H](C)O)(C=C2)[C@H]1c1cc([C@H]2C=Cc4ccc(C)n4[C@@H]2C)cn1[C@@H]3C`, the IC50 in the series on RAW264.7 worked out at 5.31 µM.
Regarding `COc1cc(-c2c(C(=O)O)c3ccccn3c2CN)ccc1O`, the inhibition in vivo at 10 mg/kg in the series filed under Rattus norvegicus [1] is 36.9%; in the series filed under Rattus norvegicus [2], 50.8%; in the series filed under Rattus norvegicus [7], 63.9%; in the series filed under Rattus norvegicus [11], 59.4%. The solubility result in [3] is “Soluble”; in [4], “Soluble”; in series [5], “Soluble”; in series [6] it was “Soluble”; in series [8] it was “Insoluble”; in series [9], “Soluble”. The same molecule showed a logP in [10] of 1.55.
